# Assay results as given in PubChem BioAssay AID248 (DTP/NCI, 2004).
# Values joined by “and” are separate entries in the source; they are usually repeats but may differ in a detail not shown here. Equal entries are not always repeated. Inconclusive results and toxic doses are left out.
# System: L1210 leukemia ip in BDF1 mice, survival T/C
# Assay: NCI In Vivo Anticancer Drug Screen. Data for tumor model L1210 Leukemia (intraperitoneal) in B6D2F1 (BDF1) mice
# Details: endpoint: mean survival time, higher = longer survival
# In short: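 Tumor cells were implanted, animals were treated, and survival was followed. The result divides the treated measurement by the vehicle-control measurement.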
smiles,measurement,setting,value
O=c1[nH]c(=O)n([C@H]2CCCO2)cc1F,T/C,"dose: 2.5 mg/kg/injection, schedule: Q01DX009 (ip), vehicle: saline",97 % of control
same,T/C,"dose: 5.0 mg/kg/injection, schedule: Q01DX009 (ip), vehicle: saline",98 % of control
same,T/C,"dose: 5.0 mg/kg/injection, schedule: Q01DX009 (oral), vehicle: saline",102 % of control
same,T/C,"dose: 10.0 mg/kg/injection, schedule: Q01DX009 (ip), vehicle: saline",100 % of control
same,T/C,"dose: 10.0 mg/kg/injection, schedule: Q01DX009 (oral), vehicle: saline",103 % of control
same,T/C,"dose: 20.0 mg/kg/injection, schedule: Q01DX009 (ip), vehicle: saline",103 % of control
same,T/C,"dose: 20.0 mg/kg/injection, schedule: Q01DX009 (oral), vehicle: saline",112 % of control
same,T/C,"dose: 38.9 mg/kg/injection, schedule: Q01DX009 (ip), vehicle: saline",97 % of control
same,T/C,"dose: 39.0 mg/kg/injection, schedule: Q01DX009 (ip), vehicle: Klucel (hydroxypropylcellulose) (HPC)",111 % of control
same,T/C,"dose: 40.0 mg/kg/injection, schedule: Q01DX009 (ip), vehicle: saline",101 % of control
same,T/C,"dose: 40.0 mg/kg/injection, schedule: Q01DX009 (oral), vehicle: saline",107 % of control
same,T/C,"dose: 64.8 mg/kg/injection, schedule: Q01DX009 (ip), vehicle: saline",107 % of control
same,T/C,"dose: 65.0 mg/kg/injection, schedule: Q01DX009 (ip), vehicle: Klucel (hydroxypropylcellulose) (HPC)",123 % of control
same,T/C,"dose: 75.0 mg/kg/injection, schedule: Q04DX003 (ip), vehicle: other",95 % of control
same,T/C,"dose: 80.0 mg/kg/injection, schedule: Q01DX009 (ip), vehicle: saline",114 % of control
same,T/C,"dose: 80.0 mg/kg/injection, schedule: Q01DX009 (oral), vehicle: saline",118 % of control
same,T/C,"dose: 105.0 mg/kg/injection, schedule: Q01DX012 (sc), vehicle: clinical formulation",159 % of control
same,T/C,"dose: 108.0 mg/kg/injection, schedule: Q01DX009 (ip), vehicle: Klucel (hydroxypropylcellulose) (HPC)",159 % of control
same,T/C,"dose: 108.0 mg/kg/injection, schedule: Q04DX003 (ip), vehicle: Klucel (hydroxypropylcellulose) (HPC)",113 % of control
same,T/C,"dose: 150.0 mg/kg/injection, schedule: Q04DX003 (ip), vehicle: other",111 % of control
same,T/C,"dose: 160.0 mg/kg/injection, schedule: Q01DX009 (ip), vehicle: saline",150 % of control
same,T/C,"dose: 160.0 mg/kg/injection, schedule: Q01DX009 (oral), vehicle: saline",113 % of control
same,T/C,"dose: 164.0 mg/kg/injection, schedule: Q01DX005 (sc), vehicle: clinical formulation",159 % of control
same,T/C,"dose: 164.0 mg/kg/injection, schedule: Q01DX012 (sc), vehicle: clinical formulation",121 % of control
same,T/C,"dose: 168.0 mg/kg/injection, schedule: Q01DX001 (ip), vehicle: other",99 % of control and 107 % of control
same,T/C,"dose: 168.0 mg/kg/injection, schedule: Q01DX001 (sc), vehicle: other",107 % of control and 116 % of control
same,T/C,"dose: 205.0 mg/kg/injection, schedule: Q01DX005 (sc), vehicle: clinical formulation",97 % of control
same,T/C,"dose: 205.0 mg/kg/injection, schedule: Q01DX012 (sc), vehicle: clinical formulation",106 % of control
same,T/C,"dose: 240.0 mg/kg/injection, schedule: Q01DX001 (ip), vehicle: other",116 % of control and 121 % of control
same,T/C,"dose: 240.0 mg/kg/injection, schedule: Q01DX001 (sc), vehicle: other",112 % of control and 117 % of control
same,T/C,"dose: 256.0 mg/kg/injection, schedule: Q01DX002 (sc), vehicle: clinical formulation",111 % of control
same,T/C,"dose: 256.0 mg/kg/injection, schedule: Q01DX005 (sc), vehicle: clinical formulation",102 % of control
same,T/C,"dose: 300.0 mg/kg/injection, schedule: Q01DX001 (ip), vehicle: Klucel (hydroxypropylcellulose) (HPC)",98 % of control
same,T/C,"dose: 300.0 mg/kg/injection, schedule: Q01DX009 (ip), vehicle: Klucel (hydroxypropylcellulose) (HPC)",114 % of control
same,T/C,"dose: 300.0 mg/kg/injection, schedule: Q01DX009 (ip), vehicle: saline",102 % of control
same,T/C,"dose: 300.0 mg/kg/injection, schedule: Q04DX003 (ip), vehicle: Klucel (hydroxypropylcellulose) (HPC)",152 % of control
same,T/C,"dose: 300.0 mg/kg/injection, schedule: Q04DX003 (ip), vehicle: other",161 % of control
same,T/C,"dose: 320.0 mg/kg/injection, schedule: Q01DX009 (ip), vehicle: saline",160 % of control
same,T/C,"dose: 320.0 mg/kg/injection, schedule: Q01DX009 (oral), vehicle: saline",98 % of control
same,T/C,"dose: 363.0 mg/kg/injection, schedule: Q01DX001 (ip), vehicle: other",121 % of control
same,T/C,"dose: 400.0 mg/kg/injection, schedule: Q01DX001 (sc), vehicle: clinical formulation",121 % of control
same,T/C,"dose: 490.0 mg/kg/injection, schedule: Q01DX001 (ip), vehicle: other",121 % of control
same,T/C,"dose: 500.0 mg/kg/injection, schedule: Q01DX001 (ip), vehicle: Klucel (hydroxypropylcellulose) (HPC)",117 % of control
same,T/C,"dose: 500.0 mg/kg/injection, schedule: Q01DX001 (sc), vehicle: clinical formulation",123 % of control
same,T/C,"dose: 500.0 mg/kg/injection, schedule: Q01DX002 (sc), vehicle: clinical formulation",110 % of control
